Results published in patent US8530508B2, “Thrombopoietin receptor agonist (TpoRA) kills acute human myeloid leukemia cells” (GlaxoSmithKline LLC, priority 2007, dated 2013).

What was measured:
CD34+ cells = experiment: Liquid culture of human progenitor cells (polyploidization, CD41/CD61 expression); type: cell-based; settings: CD34+ cells in cytokines, 7-10 days
Experimental: Normal human progenitor cells (CD34+) were used to evaluate capability of Compound A to stimulate proliferation and differentiation of megakaryocytes. CD34+ cells were plated in fibrin clots and cultured for 10 days, after which time colonies were fixed and stained with antibody specific for megakaryocytic marker CD41. […] CD34+ cells were incubated in cytokines with rhTPO or Compound A for periods of 7-10 days, after which time cells in culture were examined for degree of polyploidization, and expression of megakaryocyte lineage markers CD41 and CD61.

[1] = system: STAT5, ERK, p70S6, S6 ribosomal protein in human progenitor cells CD34+; experiment: Western blot analysis of kinase phosphorylation in CD34+ cells; type: cell-based; settings: rhTPO 2.8 μM or Compound A 5 μM
Experimental: (§1) Controls and cells stimulated with rhTPO or Compound A were washed twice in PBS, then pelleted. The pellet was dissolved in triple-lysis buffer comprised of 50 mM TRIS, 150 mM NaCl, 0.02% sodium azide, 0.1% sodium dodecyl sulphate (SDS) and 1% Igepal (Sigma, St. Louis, Mo.), and then incubated for 30 min on ice with vortexing every 10 min. The lysate was then spun at maximum speed in a microcentrifuge at 4° C. for 10 min. The extracted cell supernatant was used for Western-blot analysis.
(§2) Protein concentration was determined by a Bradford protein assay (Bio-Rad, Hercules, Calif.). A total of 150 μg protein extract was resolved on a 10% polyacrylamide gel (150V, 60 min.) then transferred to a poly vinylidene fluoride (PVDF) membrane (25V, 60 min). Condensed milk (5%) was used as a blocking solution. The membrane was incubated overnight at 4° C. with primary antibody at a 1:1000 dilution. After incubation, the membrane was washed three times in TBS-T buffer and probed with secondary HRP-conjugated antibody (Amersham Biosciences; Piscataway, N.J.) at dilution 1:1000 for 2 hour at room temperature. All antibodies were purchased from Cell Signaling Technology (Danvers, Mass.).
The effect of Compound A on phosphorylation of kinases known to be important in the Tpo signaling pathway was examined. Kinases evaluated include STAT5, ERK, p70S6, and ribosomal kinase S6. […] The same experiment was performed on human progenitor cells CD34+, which are stimulated by Compound A to differentiate into the megakaryocytes.

[2] = system: STAT5, ERK, p70S6 kinases and S6 ribosomal protein in N2C-TPO cells; experiment: Rescue of kinase phosphorylation in N2C-TPO cells (rhTPO plus Compound A); type: cell-based; settings: rhTPO first then Compound A, or the reverse
Experimental: as §1, §2
In an effort to address these possibilities, similar rescue experiments were performed on N2C-TPO cells while evaluating phosphorylation of kinases involved in TPO pathway.

[3] = system: primary leukemia cells from patients with acute myelogenous leukemia (AML); experiment: Proliferation of primary AML cells; type: cell-based, human
Experimental: (§3) Human primary leukemia cells were obtained from Stem Cell and Leukemia Core at the University of Pennsylvania. Cells were cultured in EGM-2 (Endothelial Cell Medium-2, Cambrex; East Rutherford, N.J.). All cells were cultured in humidified incubator at 37° C. and 5% CO2.
(§4) Samples were obtained from 18 patients with acute myelogenous leukemia (AML), 7 patients with acute lymphocytic leukemia (ALL) and 3 patients with chronic myelogenous leukemia (CML). In 17 out of 18 tested AML samples, Compound A inhibited cell proliferation 70-90% when compared to untreated controls or cells cultured with rhTPO (FIG. 2A).
Further the effect of various doses of Compound A (1 μM, 2.5 μM and 5 μM) on AML samples was examined. This experiment was performed on 6 different samples. […] In the remaining 3 samples, doses of 1 μM and 2.5 μM Compound A had no effect on cell proliferation and survival.

[4] = system: GAPDH and Redd1 mRNA in primary AML cells; experiment: Quantitative real time PCR of GAPDH and Redd1 in primary AML cells; type: cell-based, human; settings: primary AML samples, 6 hours, QRT-PCR
[5] = system: primary cells from patients with acute lymphocytic leukemia (ALL); experiment: Proliferation of primary ALL cells; type: cell-based, human; settings: ALL patient samples
Experimental: as §3, §4

[6] = system: primary cells from AML patient 774; experiment: Annexin V / propidium iodide apoptosis assay, primary AML cells; type: cell-based, human; settings: AML patient 774, 72 hours; vs control and Tpo+DMSO
Source text: (§5) Annexin-V is a phospholipid binding protein with a high affinity for phosphatidylserine (PS). Annexin V will not bind normal, intact cells, but necrotic cells are leaky enough to give Annexin V access to inner membrane PS. Propidium iodide stains DNA. The assay therefore identifies cells undergoing apoptosis.
(§6) Primary cells were isolated from either an AML (patient 774; top row) or ALL (patient 710; bottom row) patient. The cells were then exposed to either control solution (left pair of panels), rhTpo+DMSO (middle pair of panels), or SB559457 (right pair of panels) for 72 hours.

[7] = system: primary cells from ALL patient 710; experiment: Annexin V / propidium iodide apoptosis assay, primary ALL cells; type: cell-based, human; settings: ALL patient 710, 72 hours
Source text: as §5, §6

human CD34+ cells = experiment: Megakaryocyte colony forming assay; type: cell-based; settings: Compound A 5 μM vs rhTPO 100 ng/ml; fibrin clots, 10 days, CD41 stain
Experimental: Normal human progenitor cells were plated in fibrinogen clots at a density of 5000 CD34+ cells per ml. Fibrinogen clots were prepared as follow: cells were re-suspended in IMDM medium supplemented with sodium bicarbonate (3 mg/ml); 3-mercapto-1-2propanediol (0.002%); transferring (300 μg/ml); CaCl2(37 μg/ml); fatty acid free, deionized BSA (10%); insulin (20 μg/ml); cholesterol (5.6 μg/ml) cytokines: IL-3 (10 ng/ml), SCF (10 ng/ml) and rhTPO (100 ng/ml equal 2.8 μM) or Compound A (5 μM). Then clotting mix containing fibrinogen (0.2%) and thrombin (0.2 u/ml). Cells were plated on 35 mm culture dishes and cultured in humidified incubator at 37° C. and 5% CO2. After 10 days, colonies were fixed and stained for megakaryocyte marker CD41a with fluorescently labeled antibody. Megakaryocyte colonies were counted using inverted fluorescent microscope.
Normal human progenitor cells (CD34+) were used to evaluate capability of Compound A to stimulate proliferation and differentiation of megakaryocytes. CD34+ cells were plated in fibrin clots and cultured for 10 days, after which time colonies were fixed and stained with antibody specific for megakaryocytic marker CD41. […]

[8] = system: STAT5, ERK, p70S6, ribosomal kinase S6 in N2C-TPO cells; experiment: Western blot analysis of kinase phosphorylation in N2C-TPO cells; type: cell-based; settings: 10 or 30 minutes
Experimental: as §1, §2
The effect of Compound A on phosphorylation of kinases known to be important in the Tpo signaling pathway was examined. Kinases evaluated include STAT5, ERK, p70S6, and ribosomal kinase S6. […]

N2C-TPO cells = experiment: Proliferation of TPO dependent cell line N2C-TPO; type: cell-based
Experimental: N2C-TPO cells were derived by culture of a megakaryblastic cell line in rhTpo for 10 weeks and provided by Glaxo SmithKline Pharmaceuticals (Collegeville, Pa.). N2C-TPO cells were cultured in RPMI (Invitrogen, Carlsbad, Calif.) medium supplemented with 10% Animal Serum Complex—Fetalplex (Gemini Bio-Products, West Sacramento, Calif.), 0.5% Penicillin/Streptomycin (Invitrogen; Carlsbad, Calif.) and 20 ng/ml rhTPO.
In order to determine if Compound A has the ability to function as a thrombopoietin receptor (TpoR) agonist and stimulate proliferation and differentiation of human megakaryocytes, a number of cell culture experiments were performed using the Tpo dependent cell line (N2C-TPO) as well as normal human CD34+ cells. […] Consequently the 5 μM dose was used in further experiments where properties of rhTPO versus Compound A were directly compared.

[9] = system: primary cells from patients with chronic myelogenous leukemia (CML); experiment: Proliferation of primary CML cells; type: cell-based, human; settings: CML patient samples
Experimental: as §3, §4

[10] = system: p70S6 kinase and ribosomal kinase S6 in primary AML cells; experiment: Western blot of p70S6 and S6 kinase phosphorylation in primary AML cells; type: cell-based, human; settings: primary AML samples, 3 hours; SB559457 5 μM, Tpo 2.86 μM
Experimental: as §1, §2
In an effort to establish a correlation between cell signaling and array data, phosphorylation of kinases involved in Tpo signaling pathway in primary leukemia cells was examined. […]

[11] = system: cells obtained from AML patients; experiment: Rescue proliferation assay: rhTPO plus Compound A on AML cells; type: cell-based, human
Experimental: Proliferation assays were performed on cells obtained from 6 AML patients. In some experiments, cells were first exposed to Compound A and then stimulated with rhTPO five minutes later. To avoid the possibility of all receptors being occupied by Compound A and therefore preventing rhTPO from binding, other experiments were also performed by first stimulating the cells with rhTPO followed by exposure to Compound A 5 minutes later.

| Compound | cells expressing megakaryocyte markers CD41 and CD61 (CD34+ cells) [%] | cells with greater than 4N DNA content (CD34+ cells) [%] | ERK, p70S6 and S6 ribosomal protein phosphorylation [1] | phosphorylation of STAT5 [1] | phosphorylation of STAT5, ERK, p70S6 kinases and S6 ribosomal protein with rhTPO plus Compound A [2] | effect on cell proliferation and survival ([3]; 1 μM and 2.5 μM, remaining 3 of 6 AML samples) | leukemia cell growth and proliferation ([3]; 5 μM, remaining 3 of 6 AML samples) | effect on cell proliferation ([3]; 1 and 2.5 μM, 3 of 6 AML samples) | inhibition of cell proliferation ([3]; 17 out of 18 AML samples, vs untreated controls or cells cultured with rhTPO) | expression of GAPDH relative to cells treated with rhTpo [4] | effect on cell proliferation / growth or viability [5] | Annexin V and PI positive cells (apoptosis) [6] | cellular apoptosis [7] | number of megakaryocyte colonies compared to rhTPO (human CD34+ cells) | phosphorylation of STAT5, ERK, p70S6 and ribosomal kinase S6 [8] | concentration of maximal effects on cell proliferation (N2C-TPO cells) [µM] | effect on cell proliferation / growth or viability [9] | phosphorylation of p70S6 kinase at Thr421/Ser424 and ribosomal kinase S6 [10] | rescue of AML cell survival by rhTPO ([11]; samples 794 and 332, rhTPO added with Compound A) | rescue of AML cell survival by rhTPO ([11]; samples 857, 774, 759, 342, rhTPO added 5 minutes before or after Compound A) |
| --- | --- | --- | --- | --- | --- | --- | --- | --- | --- | --- | --- | --- | --- | --- | --- | --- | --- | --- | --- | --- |
| CC1=NN(c2ccc(C)c(C)c2)C(=O)/C1=N\Nc1cc(F)cc(-c2cccc(C(=O)O)c2)c1O [Compound A, 3′-{N′-[1-(3,4-dimethylphenyl)-3-methyl-5-oxo-1,5-dihydropyrazol-4-ylidene]hydrazine}-5′-fluoro-2′-hydroxybiphenyl-3-carboxylic acid] | 35 | 14 | activation | only cells exposed to rhTPO | rescue of phosphorylation | no effect | inhibited leukemia cell growth and proliferation | had an effect on cell proliferation | 70-90% | at least two times higher | No significant effects | increase in Annexin V and PI positive cells | No significant increases in cellular apoptosis | slightly lower | none of those kineses were activated | 5 to 10 | No significant effects | high phosphorylation | adding rhTPO did attenuate the Compound A effect | not rescued |
| rhTPO: Full length recombinant human thrombopoietin (rhTPO) obtained from R&D Systems | – | 8 | activation | stimulated phosphorylation of STAT5 | – | – | – | – | – | – | – | – | – | – | high phosphorylation level | – | – | none or very little phosphorylation | – | – |
